Results as given in paper PMC3684613 (PLoS ONE, 2013).
Like-named read-outs stand apart in the source and are kept apart here.

Tests used:
P. falciparum 3D7 [1] = assay: DAPI stain fluorescent high content imaging assay, P. falciparum 3D7 (confirmatory screen, Avery); details: Plasmodium falciparum; for EC50: 3D7, read-out: EC50_nM; for inhibition of growth at 5 µM: 3D7, read-out: percent_inh @ 5 uM; for inhibition of growth at 2 µM: 3D7, read-out: percent_inh @ 2 uM
P. falciparum 3D7 [2] = tested on: P. falciparum 3D7; parameters: method as in ChEMBL-NTD; details: ref ChEMBL-NTD, cited from earlier work

Row | Structure (SMILES) | EC50 (P. falciparum 3D7 [1]) [nM] | also measured
1 | CCN(CC)CCn1c(=N)n(CC(O)c2ccc(Cl)c(Cl)c2)c2ccccc21 (stereo not shown) [MMV000248] | 718 | inhibition of growth at 5 µM (P. falciparum 3D7 [1]): 97%
2 | CCOc1ccc(Nc2c3ccccc3nc3ccccc23)cc1 [MMV000304] | 1060 | inhibition of growth at 5 µM (P. falciparum 3D7 [1]): 97%; EC50 (P. falciparum 3D7 [2]; source StJude (SJ ids)): 5720 nM
3 | Cc1ccc2nc(C)cc(Nc3cccc(C(F)(F)F)c3)c2c1 [MMV000326] | 1170 | inhibition of growth at 5 µM (P. falciparum 3D7 [1]): 98%; EC50 (P. falciparum 3D7 [2]; source StJude (SJ ids)): 879 nM
4 | CCn1c2c(c(=N)c3c1CCC3)CCCC2 [MMV000340] | 694 | inhibition of growth at 5 µM (P. falciparum 3D7 [1]): 77%; EC50 (P. falciparum 3D7 [2]; values follow the order of the source (GNF; GSK; StJude)): 3120 nM
5 | Oc1ccc(Br)cc1CN1CCN(Cc2cccc(F)c2)CC1 [MMV000356] | 1030 | EC50 (P. falciparum 3D7 [2]; original screening data, source (GSK, GNF, StJude), several values separated by ';' in order of sources): 1400 nM
6 | CC(C)(C)c1ccc2c(c1)CN(Cc1ccc(Cl)cc1)CO2 [MMV000442] | 362 | inhibition of growth at 5 µM (P. falciparum 3D7 [1]): 98%; EC50 (P. falciparum 3D7 [2]; source StJude (SJ ids)): 255 nM
7 | CCOc1ccc2c(c1)CN(Cc1ccc(Cl)cc1)CO2 [MMV000443] | 439 | inhibition of growth at 5 µM (P. falciparum 3D7 [1]): 97%; EC50 (P. falciparum 3D7 [2]; source StJude (SJ ids)): 1490 nM
8 | CCCCCn1c(=N)n(CC(O)COc2cccc(C)c2)c2ccccc21 (stereo not shown) [MMV000444] |  | inhibition of growth at 5 µM (P. falciparum 3D7 [1]): 96%; EC50 (P. falciparum 3D7 [2]; source StJude (SJ ids)): 2650 nM
9 | CCCCCCn1c(=N)n(CC(O)COc2cccc(C)c2)c2ccccc21 (stereo not shown) [MMV000445] | 1140 | inhibition of growth at 5 µM (P. falciparum 3D7 [1]): 98%; EC50 (P. falciparum 3D7 [2]; source StJude (SJ ids)): 1970 nM
10 | CCOc1cc2c(cc1OCC)C(c1cc(Cl)ccc1O)NCC2 (stereo not shown) [MMV000478] | 746 | inhibition of growth at 5 µM (P. falciparum 3D7 [1]): 98%
11 | CCOC(=O)c1cnc2ccc(OC)cc2c1Nc1ccc(N2CCN(C)CC2)cc1 [MMV000704] | 1100 | 
12 | Oc1ccc(-c2nc(-c3ccc4oc5ccc(-c6[nH]c(-c7ccc(O)cc7)nc6-c6ccccc6)cc5c4c3)c(-c3ccccc3)[nH]2)cc1 [MMV000753] | 326 | inhibition of growth at 5 µM (P. falciparum 3D7 [1]): 98%
13 | COc1ccc(Nc2nc(NCc3ccccc3)c3ccccc3n2)cc1 [MMV000963] | 589 | 
14 | CN1CCN(c2nc(Nc3ccc(O)cc3)nc3ccccc23)CC1 [MMV000986] | 1430 | 
15 | COc1cc2cc(C(=O)Nc3ccccc3)c(N)nc2cc1OC [MMV006767] |  | inhibition of growth at 5 µM (P. falciparum 3D7 [1]): 99%
16 | COc1ccccc1N1C(=N)SC(=Cc2ccc(OCc3ccccc3F)cc2)C1=O [MMV007199] | 478 | inhibition of growth at 5 µM (P. falciparum 3D7 [1]): 95%
17 | Brc1ccc(Nc2nc3ccccc3nc2Nc2ccc(Br)cc2)cc1 [MMV007224] | 1060 | inhibition of growth at 5 µM (P. falciparum 3D7 [1]): 98%
18 | COc1ccc2nc(C)cc(Nc3ccc(Cl)cc3)c2c1 [MMV007875] | 2000 | inhibition of growth at 2 µM (P. falciparum 3D7 [1]): 95%
19 | O=c1nc(C=Cc2ccc(Cl)cc2)oc2ccccc12 [MMV007977] | 995 | inhibition of growth at 5 µM (P. falciparum 3D7 [1]): 76%
20 | Cc1cc(C)cc(Nc2cc(C)nc3nc(C(F)(F)F)nn23)c1 [MMV011259] | 85.7 | 
21 | Cc1ccc(Nc2nc(N)c3ccccc3n2)cc1Cl [MMV011522] | 4000 | inhibition of growth at 2 µM (P. falciparum 3D7 [1]): 96%
22 | Oc1ccccc1CN1CCN(C(c2ccccc2)c2ccccc2)CC1 [MMV011795] | 611 | inhibition of growth at 5 µM (P. falciparum 3D7 [1]): 97%
23 | CCOc1ccc(C2N(C)c3ccccc3N2C)cc1 [MMV075490] | 941 | inhibition of growth at 5 µM (P. falciparum 3D7 [1]): 72%

Row | Structure (SMILES) | EC50 (P. falciparum 3D7 [1]) [nM] | also measured
24 | Nc1nc(Nc2cccc(F)c2)nc2ccccc12 [MMV080034] | 1000 | 
25 | COc1ccc(C=C2SC(Nc3ccc(F)cc3)=NC2=O)c(OC)c1 [MMV084434] | 591 | inhibition of growth at 5 µM (P. falciparum 3D7 [1]): 92%
26 | COc1ccc2nc(C)cc(Nc3ccccc3O)c2c1 [MMV274073] | 686 | 
27 | CCn1nc(-c2ccc(C(=O)OC)cc2)nc2c(=O)n(C)c(=O)nc1-2 [MMV306025] | 693 | 
28 | COc1ccc(-c2nc(N3CCN(C(=O)C4CCCCC4)CC3)c3c4c(sc3n2)CCCC4)cc1 [MMV396594] | 1060 | 
29 | CCOc1ccccc1CN1CCc2nc3cc(C(C)(C)C)nn3c(O)c2C1 [MMV396595] | 1010 | 
30 | CCOc1c(Cl)cc(CNCC(O)c2ccccc2)cc1OC (stereo not shown) [MMV396632] | 1050 | 
31 | CCOc1cc(CNC(C)C(O)c2ccccc2)cc(Cl)c1OCC (stereo not shown) [MMV396633] | 1240 | 
32 | O=C(NC1CCN(Cc2ccccc2)CC1)c1cc2nc(-c3ccc(Cl)s3)cc(C(F)(F)F)n2n1 [MMV396635] | 959 | 
33 | Cc1sc(NC(=O)c2ccccc2)c(C(c2cccs2)N2CCN(c3ccccc3)CC2)c1C (stereo not shown) [MMV396652] | 1180 | 
34 | Cc1sc(NC(=O)c2ccco2)c(C(c2cccnc2)N2CCC(Cc3ccccc3)CC2)c1C (stereo not shown) [MMV396663] | 1020 | 
35 | CCOC(=O)c1c(C)n(-c2ccccc2)c2ccc(OC(=O)c3cc(OC)c(OC)c(OC)c3)cc12 [MMV396664] | 615 | 
36 | COc1cc(C(=O)Nc2nc3c(cc4c5c(cccc53)CC4)s2)cc(OC)c1OC [MMV396665] | 898 | 
37 | Cc1cc(N2CCCC2)nc(Nc2ccc(NC(=O)CCc3ccccc3)cc2)n1 [MMV396669] | 1070 | 
38 | O=C(NCC(c1ccsc1)N1CCCCCC1)c1ccc(C(F)(F)F)cc1 (stereo not shown) [MMV396672] | 433 | 
39 | O=C(CSc1nccn2nc(-c3ccccc3)cc12)Nc1cc(C(F)(F)F)ccc1Cl [MMV396678] | 218 | 
40 | COc1ccc(-c2cc3c(SCC(=O)Nc4cc(C(F)(F)F)ccc4Cl)nccn3n2)cc1 [MMV396679] | 89.9 | 
41 | Cc1ccc(-c2cc3c(SCC(=O)Nc4cc(C(F)(F)F)ccc4Cl)nccn3n2)cc1 [MMV396680] | 92.8 | 
42 | Cc1cc(NC(=O)c2cccc(C(F)(F)F)c2)n(-c2nc(-c3ccc4c(c3)OCO4)cs2)n1 [MMV396681] | 959 | 
43 | C[n+]1c2ccccc2nc2ccc(NCCO)cc21 [MMV396693] | 296 | 
44 | CCN(CC)CCNc1ncnc2c1[nH]c1ccc(Cl)cc12 [MMV396703] | 406 | 
45 | CN1CCN(c2ncnc3c2[nH]c2ccc(Cl)cc23)CC1 [MMV396704] | 1190 | 
46 | COc1cccc(Cn2c(Oc3ccccc3)nc3c2c(=O)n(C)c(=O)n3C)c1 [MMV396705] | 1390 | 

Row | Structure (SMILES) | EC50 (P. falciparum 3D7 [1]) [nM] | also measured
47 | CC1(c2ccccc2)Nc2ccccc2-c2nc3ccccc3n21 (stereo not shown) [MMV396715] | 1730 | 
48 | COc1ccc(CCN2C(=O)c3[nH]nc(-c4cc(Cl)c(C)cc4O)c3C2c2ccccc2F)cc1 (stereo not shown) [MMV396717] | 916 | 
49 | COc1cccc(C2(C)Nc3ccccc3-c3nc4ccccc4n32)c1 (stereo not shown) [MMV396719] | 1150 | 
50 | N=c1n(CCN2CCCCC2)c2ccccc2n1CC(=O)c1ccc(Cl)c(Cl)c1 [MMV396723] | 1240 | 
51 | N#Cc1nc(Cc2cccc3ccccc23)oc1N1CCN(C(c2ccccc2)c2ccccc2)CC1 [MMV396726] | 1160 | 
52 | OC(CNCC1CCCO1)Cn1c2ccc(Cl)cc2c2cc(Cl)ccc21 (stereo not shown) [MMV396736] | 1060 | 
53 | CC(C)CNC(=O)c1c(N)n(CCc2ccccc2F)c2nc3ccccc3nc12 [MMV396744] | 832 | 
54 | COc1ccc2c(c1)C1(Nc3ccccc3-c3nc4ccccc4n31)C(=O)N2 (stereo not shown) [MMV396749] | 928 | 
55 | O=C(NNc1cc(N2CCCC2)nc(N2CCCC2)n1)c1ccccc1 [MMV396770] | 1330 | 
56 | CC(C)(C)CC(C)(C)NCC(O)COc1ccc(Cl)cc1Cl (stereo not shown) [MMV396794] | 1160 | 
57 | COc1ccc(-c2c(C)nn3c(N)c(C#N)cnc23)cc1OC [MMV396797] | 477 | 
58 | Cc1cccc(-n2ncc3c(=O)[nH]c(-n4nc(C)cc4NC(=O)c4cc5ccccc5o4)nc32)c1 [MMV403679] | 929 | 
59 | Nc1ccn([C@@H]2O[C@H](CO)[C@@H](O)[C@H]2O)c(=O)n1 [MMV638723] | 385 | 
60 | O=C1C2=C(Nc3ccccc3SC2c2ccccc2)c2ccccc21 (stereo not shown) [MMV645672] | 890 | 
61 | O=C(Nc1cccc(C2=NCCN2)c1)Nc1cccc(C2=NCCN2)c1 [MMV665810] | 1010 | inhibition of growth at 5 µM (P. falciparum 3D7 [1]): 83%
62 | Oc1c(C(Nc2ccccn2)c2cccc(Oc3ccccc3)c2)ccc2cccnc12 (stereo not shown) [MMV665814] | 1010 | inhibition of growth at 5 µM (P. falciparum 3D7 [1]): 97%
63 | COc1ccc(C=C2SC(Nc3ccccc3)=NC2=O)cc1 [MMV665836] | 551 | inhibition of growth at 5 µM (P. falciparum 3D7 [1]): 71%
64 | CCOc1ccc(N2C(N)=NC(N)=NC2(C)C)cc1 [MMV667486] |  | inhibition of growth at 2 µM (P. falciparum 3D7 [1]): 92%
65 | CN(C)c1ccc(N2C(N)=NC(N)=NC2(C)C)cc1 [MMV667487] |  | inhibition of growth at 2 µM (P. falciparum 3D7 [1]): 95%
66 | COC(=O)c1ccc(Cl)c2c1C1C=CCC1C(c1cccc3ccccc13)N2 (stereo not shown) [MMV667489] | 939 | 
67 | COc1ccc(C2c3ccc4ccccc4c3Oc3ncn(CCCn4ccnc4)c(=N)c32)cc1OC (stereo not shown) [MMV667490] | 1790 | 
68 | COc1ccc(C2c3ccc4ccccc4c3Oc3ncn(CCCN(C)C)c(=N)c32)cc1 (stereo not shown) [MMV667491] | 1230 | 
69 | CN(N=O)C1=C(NC2CCCCC2)C(=O)c2ccccc2C1=O [MMV667492] | 1190 | 
